{
  "source": "patent US11324763B2",
  "about": "“Malaria transmission prevention agent having rare sugar as effective component thereof and malarial parasite growth regulating agent” (NATIONAL UNIVERSITY CORPORATION KAGAWA UNIVERSITY, priority 2014, dated 2022)",
  "type_in_all_cases": "in vivo",
  "key": {"[1]": {"test_system": "Plasmodium berghei parasite in Anopheles stephensi mosquitoes", "assay": "Malaria parasite growth in the body of vector mosquitoes fed with a rare sugar (ookinete, oocyst, sporozoite counts)", "details": "for formation of ookinetes in the midgut of the mosquito: 100 mM rare sugar + 440 mM D-fructose fed, one day after sucking infected blood, vs control", "method": "In order to block malaria transmission, a vector mosquito is fed with a feed containing a rare sugar in advance, and then made to suck blood of a mouse infected with Plasmodium berghei parasite, whereby garaetocytes are ingested into the midgut of the vector mosquito. Thereafter, the feed containing a rare sugar is continuously given to the mosquito, and at the time point when one day has passed after the gametocytes are ingested into the body, the number of ookinetes in the midgut is evaluated, and then, the number of oocysts on the midgut after 10 days, the number of sporozoites in the midgut and the number of sporozoites in the salivary glands after 18 days are evaluated. In this manner, the malaria parasite growth inhibitory effect of the rare sugar was examined.\nFirst, three groups, each of which includes about 200 Anopheles stephensi mosquitoes, were prepared, and in a first group, a mixed aqueous solution of 100 mM D-allose and 440 mM D-fructose was fed, in a second group, a mixed aqueous solution of 100 mM B-psicose and 440 mM D-fructose was fed, and in a third group, an aqueous solution of 440 mM D-fructose was fed, which was used as a control. Each of these aqueous solutions was placed in an Erlenmeyer flask, and a lower end portion of a filter paper was dipped in the aqueous solution, and Anopheles stephensi mosquitoes were fed with the aqueous solution absorbed in the filter paper.\nFurther, red blood cells infected with Plasmodium berghei parasite were intraperitoneally administered to BALB/c mice (6 weeks of age, female), whereby mice infected with malaria were prepared.\nAnopheles stephensi mosquitoes in each group were made to suck each aqueous solution for 3 days, and thereafter, made to suck blood of the mice infected with Plasmodium berghei malaria, whereby the malaria parasites were incorporated in the body of Anopheles stephensi mosquitoes. Subsequently, while continuously giving the fructose aqueous solution containing a rare sugar or the aqueous solution containing only fructose, the number of parasites in the body of the mosquitoes was evaluated at the below-mentioned timings. That is, 24 hours after sucking infected blood, the number of ookinetes in the midgut was counted, the number of oocysts on the midgut was counted after 10 days, and the number of sporozoites in the midgut and in the salivary glands were counted after 18 days, and the results of the three groups were compared.\nThe D-allose concentration dependence for malaria parasite growth blocking effect of a rare sugar was examined. Four groups of Anopheles stephensi mosquitoes were prepared, and in a first group to a third group, mixed aqueous solutions of 10 mM, 30 mM, or 100 mM D-allose and 440 mM D-fructose were fed, respectively, and in a fourth group, an aqueous solution of 440 mM D-fructose was fed. In each of these aqueous solutions, a lower end portion of a filter paper was dipped, and Anopheles stephensi mosquitoes were fed with the aqueous solution absorbed in the filter paper.\nAnopheles stephensi mosquitoes in each group were made to suck each aqueous solution for 3 days, and thereafter, made to suck blood of the mice infected with Plasmodium berghei malaria, whereby the malaria parasites were incorporated in the body of Anopheles stephensi mosquitoes. Thereafter, while continuously giving the aqueous solution containing a rare sugar or the aqueous solution containing only fructose, the number of parasites in the body of the mosquitoes was counted at respective timings. That is, 24 hours after sucking infected blood, the number of ookinetes in the midgut, was counted, the number of oocysts on the midgut was counted after 10 days, and the number of sporozoites in the midgut and in the salivary glands were counted after 18 days, and the results of the four groups were compared. […]"}, "[2]": {"test_system": "Plasmodium berghei transmission from Anopheles stephensi mosquitoes to BALB/c mice", "assay": "Infectivity to mice: malaria transmission by rare-sugar-fed mosquitoes sucking blood of BALB/c mice", "details": "for onset of malaria in mice: compared with 10 mM group and fructose single feeding group", "description": "20 days after sucking blood of an infected mouse, each group of mosquitoes which had been fed with a rare sugar (D-allose or D-psicose) and a control group of mosquitoes which had not been fed with a rare sugar were made to suck blood of mice, and the infectivity of malaria in mice was examined. As a result, in a group in which the mosquitoes fed with D-allose were made to suck blood, malaria infection was not observed in about 70% of mice, and the infection inhibitory effect of a rare sugar was confirmed.\n(§1) Each of the Anopheles stephensi mosquitoes in the three groups fed with the feed for 20 days in the above Example 1 was made to suck blood of the BALB/c mice (6 weeks of age, female). In each group, 50 mosquitoes were made to suck blood of 5 mice for 1 minute 5 times for each mouse. Every day from 2 days after sucking blood, a smear preparation was prepared from a small amount of blood collected from the tail of each mouse, followed by Giemsa staining, and thereafter, the presence or absence of parasites was examined with a microscope. In some mice, parasites were confirmed 3 days after sucking blood, and thereafter, the incidence rate increased, however, whether or not malaria was developed was determined based on the presence or absence of parasites at the time point of 14 days after sucking blood in the end.\nEach of the Anopheles stephensi mosquitoes in the four groups fed with the feed for 20 days in the above Example 3 was made to suck blood of the BALE/c mice (6 weeks of age, female). In each group, 50 mosquitoes were made to suck blood of 5 mice for 1 minute 5 times for each mouse. Every day from 2 days after sucking blood, a smear preparation was prepared from a small amount of blood collected from the tail of each mouse, followed by Giemsa staining, and thereafter, the presence or absence of parasites was examined with a microscope. Whether or not malaria was developed was determined at the time point of 14 days after sucking blood. […] Also in the 30 mM D-allose feeding group, the incidence rate was 100%, however, malaria was developed one day later as compared with the 10 mM D-ailose feeding group and the fructose single feeding group.\nas §1, with “Example 5” for “Example 1”, “the BALE/c” for “the BALB/c”"}, "[3]": {"test_system": "Plasmodium berghei parasite in Anopheles stephensi mosquitoes", "assay": "Malaria parasite growth in the body of vector mosquitoes fed with a rare sugar (ookinete, oocyst, sporozoite counts)", "details": "Example 5, D-allose 100 mM + 440 mM D-fructose or Rare Sugar Sweet diluted 2.3 times"}, "[4]": {"details": "Example 1, 100 mM rare sugar + 440 mM D-fructose, 10 days after sucking blood"}, "[5]": {"details": "Example 1, 100 mM rare sugar + 440 mM D-fructose, 18 days after sucking blood"}, "[6]": {"details": "Example 2, mosquitoes fed 100 mM rare sugar + Fructose 440 mM for 20 days, determined 14 days after sucking blood"}, "[7]": {"details": "Examples 1 and 2, 100 mM rare sugar + 440 mM D-fructose"}},
  "note": "“Also recorded” adds a separate entry of the source.",
  "data": [
    {"smiles": "O=C(CO)[C@H](O)[C@H](O)[C@H](O)CO", "note": "[D-psicose]", "values": [
      {"measurement": "formation of ookinetes in the midgut of the mosquito", "setting": "[1]; Example 1", "value": "suppressed to some extent; also recorded: somewhat suppressed"},
      {"measurement": "formation of oocysts on the midgut", "setting": "[1]; [4]", "value": "slightly promoted"},
      {"measurement": "formation of sporozoites in the salivary glands", "setting": "[1]; [5]", "value": "slightly exceeding that in the control"},
      {"measurement": "number of sporozoites in the midgut suppressed as compared with the control group", "setting": "[1]; [5]", "value": "about 60%"},
      {"measurement": "Incidence rate after sucking blood (%) (mice which developed malaria/mice which had their blood sucked)", "setting": "[2]; [6]", "value": 100, "unit": "%"},
      {"measurement": "Incidence rate after sucking blood (%) (mice which developed malaria/mice which had their blood sucked)", "setting": "[2]; Example 2, mosquitoes fed 100 mM rare sugar + Fructose 440 mM for 20 days, determined 14 days after sucking blood, listed as Psicose", "value": "100 (6/6) %"},
      {"measurement": "malaria transmission (transmission-blocking effect)", "setting": "[2]; [7]", "value": "not observed"}
    ]},
    {"smiles": "O=C[C@H](O)[C@H](O)[C@H](O)[C@H](O)CO", "note": "[D-allose]", "values": [
      {"measurement": "formation of ookinetes in the midgut of the mosquito", "setting": "[1]; Example 1", "value": "not suppressed; also recorded: slight"},
      {"measurement": "formation of oocysts on the midgut", "setting": "[1]; [4]", "value": "suppressed"},
      {"measurement": "number of oocysts suppressed as compared with the control group", "setting": "[1]; [4]", "value": 95, "unit": "%"},
      {"measurement": "formation of sporozoites in the midgut", "setting": "[1]; [5]", "value": "suppressed"},
      {"measurement": "formation of sporozoites in the salivary glands", "setting": "[1]; [5]", "value": "suppressed"},
      {"measurement": "number of sporozoites in the midgut suppressed as compared with the control group", "setting": "[1]; [5]", "value": 98.7, "unit": "%"},
      {"measurement": "number of sporozoites in the salivary gland suppressed as compared with the control group", "setting": "[1]; [5]", "value": 98.5, "unit": "%"},
      {"measurement": "number of sporozoites in the salivary glands", "setting": "[1]; Example 3, 30 mM D-allose feeding group, 18 days after sucking blood", "value": "significantly decreased"},
      {"measurement": "number of oocysts", "setting": "[1]; Example 3, D-allose 10 mM to 100 mM + 440 mM D-fructose, 10 days after sucking blood", "value": "suppressed in a D-allose concentration-dependent manner"},
      {"measurement": "growth into ookinetes in the midgut", "setting": "[1]; Example 3, D-allose 10 mM to 100 mM + 440 mM D-fructose, one day after sucking blood", "value": "suppressed in a concentration-dependent manner"},
      {"measurement": "growth of oocysts on the midgut", "setting": "[1]; Example 3, D-allose 100 mM + 440 mM D-fructose, 10 days after sucking blood", "value": "almost completely suppressed"},
      {"measurement": "formation of sporozoites (midgut and salivary glands)", "setting": "[1]; Example 3, D-allose 100 mM + 440 mM D-fructose, 18 days after sucking blood", "value": "completely suppressed"},
      {"measurement": "suppression of the formation of ookinetes in the midgut", "setting": "[1]; Example 5, D-allose 100 mM + 440 mM D-fructose or Rare Sugar Sweet diluted 2.3 times, one day after sucking blood", "value": "slight"},
      {"measurement": "number of oocysts suppressed as compared with the control group", "setting": "[3]; 10 days after sucking blood", "value": 100, "unit": "%"},
      {"measurement": "number of sporozoites in the midgut suppressed as compared with the control group", "setting": "[3]; 18 days after sucking blood", "value": 100, "unit": "%"},
      {"measurement": "number of sporozoites in the salivary glands suppressed", "setting": "[3]; 18 days after sucking blood", "value": 100, "unit": "%"},
      {"measurement": "Incidence rate after sucking blood (%) (mice which developed malaria/mice which had their blood sucked)", "setting": "[2]; [6]", "value": 29, "unit": "%"},
      {"measurement": "Incidence rate after sucking blood (%) (mice which developed malaria/mice which had their blood sucked)", "setting": "[2]; Example 2, mosquitoes fed 100 mM rare sugar + Fructose 440 mM for 20 days, determined 14 days after sucking blood, listed as Allose", "value": "29 (2/7) %"},
      {"measurement": "number of sporozoites inoculated into the mice when having their blood sucked", "setting": "[2]; Example 4, 30 mM D-allose feeding group, inferred from onset one day later", "value": "about one-tenth"},
      {"measurement": "malaria transmission / development of malaria in mice", "setting": "[2]; Example 4, 100 mM D-allose + D-fructose", "value": "did not develop malaria"},
      {"measurement": "incidence rate suppressed", "setting": "[2]; Example 4, 100 mM D-allose feeding group", "value": 100, "unit": "%"},
      {"measurement": "Incidence rate after sucking blood (%) (mice which developed malaria/mice which had their blood sucked)", "setting": "[2]; Example 4, Allose 10 mM + Fructose 440 mM, 14 days after sucking blood", "value": 100, "unit": "%"},
      {"measurement": "Incidence rate after sucking blood (%) (mice which developed malaria/mice which had their blood sucked)", "setting": "[2]; Example 4, Allose 10 mM + Fructose 440 mM, 14 days after sucking blood, listed as Allose", "value": "100 (5/5) %"},
      {"measurement": "Incidence rate after sucking blood (%) (mice which developed malaria/mice which had their blood sucked)", "setting": "[2]; Example 4, Allose 30 mM + Fructose 440 mM, 14 days after sucking blood", "value": 100, "unit": "%"},
      {"measurement": "Incidence rate after sucking blood (%) (mice which developed malaria/mice which had their blood sucked)", "setting": "[2]; Example 4, Allose 30 mM + Fructose 440 mM, 14 days after sucking blood, listed as Allose", "value": "100 (5/5) %"},
      {"measurement": "onset of malaria in mice", "setting": "[2]; Example 4, Allose 30 mM + Fructose 440 mM", "value": "one day later"},
      {"measurement": "onset of malaria in mice", "setting": "[2]; Example 4, Allose 30 mM + Fructose 440 mM, listed as Allose", "value": "The onset was delayed"},
      {"measurement": "Incidence rate after sucking blood (%) (mice which developed malaria/mice which had their blood sucked)", "setting": "[2]; Example 4, Allose 100 mM + Fructose 440 mM, 14 days after sucking blood", "value": "0 (0/5) %"},
      {"measurement": "Incidence rate after sucking blood (%) (mice which developed malaria/mice which had their blood sucked)", "setting": "[2]; Example 6, Allose 100 mM + Fructose 440 mM or Rare Sugar Sweet diluted 2.3 times, 14 days after sucking blood", "value": "0 (0/5) %"},
      {"measurement": "malaria transmission (transmission-blocking effect)", "setting": "[2]; Example 6, D-allose 100 mM + D-fructose or Rare Sugar Sweet diluted 2.3 times", "value": "completely inhibited; also recorded: completely transmission-blocking effect"},
      {"measurement": "malaria transmission (transmission-blocking effect)", "setting": "[2]; [7]", "value": "significantly suppressed; also recorded: completely blocks"},
      {"measurement": "mice in which malaria infection was not observed", "setting": "[2]; mosquitoes fed with rare sugar, 20 days after sucking blood of an infected mouse", "value": "about 70%"}
    ]}
  ]
}
